Assay results reported in patent US8546377B2 (AbbVie Inc., priority 2009, dated 2013).
Like-named read-outs stand apart in the source and are kept apart here.

Legend:
5HT2C receptors = target: T1, 5HT2C receptors (Homo sapiens, UniProt P28335); experiment: Human 5-HT2C functional assay in CHO-K1 cells (calcium flux, FLIPR); type: cell-based; parameters: expressed in transfected cells; host or cells: CHO-K1 cells
T1 sequence (P28335 33-458): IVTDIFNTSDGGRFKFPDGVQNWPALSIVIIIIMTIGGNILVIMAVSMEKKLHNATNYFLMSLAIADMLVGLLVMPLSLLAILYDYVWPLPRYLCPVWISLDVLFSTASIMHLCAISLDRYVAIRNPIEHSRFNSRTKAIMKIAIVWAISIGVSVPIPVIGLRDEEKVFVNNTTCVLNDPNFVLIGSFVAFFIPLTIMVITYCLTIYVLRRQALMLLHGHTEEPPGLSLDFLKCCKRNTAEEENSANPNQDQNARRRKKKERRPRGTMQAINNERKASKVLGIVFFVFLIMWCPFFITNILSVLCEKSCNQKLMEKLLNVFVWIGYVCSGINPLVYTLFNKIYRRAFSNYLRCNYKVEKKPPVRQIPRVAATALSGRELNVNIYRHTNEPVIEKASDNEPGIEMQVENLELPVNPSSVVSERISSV
Summary of the method: (§1)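 EC50 came from a 4-parameter logistic fit, with Emax expressed relative to serotonin, of intracellular Ca2+ rises read on FLIPR at 480/530 nm, 25° C, over 3 min. Compounds ran from 10 μM in six 1:10 steps (0.2% DMSO) on serum-starved CHO-K1 transfectants pre-loaded 60 min with Ca4 dye and probenecid.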

5HT2B receptors = target: T2, 5HT2B receptors (Homo sapiens, UniProt P41595); experiment: Human 5-HT2B functional assay in CHO-K1 cells (calcium flux, FLIPR); type: cell-based
T2 construct: expressed in transfected cells; host or cells: CHO-K1 cells
T2 sequence (P41595 whole entry): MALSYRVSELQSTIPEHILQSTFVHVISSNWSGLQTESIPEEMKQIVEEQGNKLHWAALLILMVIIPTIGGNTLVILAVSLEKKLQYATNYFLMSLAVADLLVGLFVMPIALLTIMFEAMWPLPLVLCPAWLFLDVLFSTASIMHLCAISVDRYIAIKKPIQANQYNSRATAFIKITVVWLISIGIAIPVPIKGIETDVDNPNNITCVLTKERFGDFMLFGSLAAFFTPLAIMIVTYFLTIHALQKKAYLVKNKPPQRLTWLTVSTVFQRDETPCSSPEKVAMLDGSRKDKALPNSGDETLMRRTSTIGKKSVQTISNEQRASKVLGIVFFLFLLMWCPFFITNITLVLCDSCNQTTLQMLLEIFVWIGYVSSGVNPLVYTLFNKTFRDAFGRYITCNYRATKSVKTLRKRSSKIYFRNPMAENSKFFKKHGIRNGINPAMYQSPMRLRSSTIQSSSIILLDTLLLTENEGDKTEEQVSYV
Summary of the method: as §1

[1] = CHO-K1, read-out: Emax (%), 5-HT2c Agonist Activity, CHO-K1 cells, percentage relative to the effect of serotonin
[2] = CHO-K1, read-out: Emax (%), 5-HT2c Agonist Activity
[3] = CHO-K1 cells over-expressing 5HT2C, calcium flux, read-out: EC50 (μM), 5-HT2c Agonist Activity
[4] = CHO-K1 cells over-expressing 5HT2B, calcium flux, read-out: EC50 (μM), 5-HT2B Agonist Activity
[5] = CHO-K1 cells, percentage relative to the effect of serotonin, read-out: Emax (%), 5-HT2c Agonist Activity
[6] = CHO-K1 cells, percentage relative to the effect of serotonin, read-out: Emax (%), 5-HT2B Agonist Activity
[7] = CHO-K1, read-out: Emax (%), 5-HT2B Agonist Activity

| EC50 (5HT2C receptors; [3]) [µM] | EC50 (5HT2B receptors; [4]) [µM] | Emax (5HT2C receptors; [5]) [%] | Structure (SMILES) | EC50 (5HT2C receptors) [µM] | Emax (5HT2C receptors; [1]) [%] | EC50 (5HT2B receptors) [µM] | Emax (5HT2B receptors; [7]) [%] | also measured |
| --- | --- | --- | --- | --- | --- | --- | --- | --- |
| – | – | – | Cc1ccc2c(c1)NC(=O)CC1CNCCN21 (centres unmarked) [Example 49, 9-methyl-1,2,3,4,4a,5-hexahydropyrazino[1,2-a][1,5]benzodiazepin-6(7H)-one] | 0.06 | 100 | > 10 | – | – |
| 0.007 | > 10 | – | Cc1cccc2c1OCC[C@H]1CN(CCF)CCN21 [Example 246, (4aS)-3-(2-fluoroethyl)-8-methyl-2,3,4,4a,5,6-hexahydro-1H-pyrazino[2,1-d][1,5]benzoxazepine] | – | – | – | – | Emax (5HT2C receptors; [2]): 95% |
| 0.02 | 1 | > 120 | O=C1CC2CNCCN2c2cc(/C=C/c3cc(F)cc(F)c3)ccc2N1 (centres unmarked) [Example 143, 10-[(E)-2-(3,5-difluorophenyl)vinyl]-1,2,3,4,4a,5-hexahydropyrazino[1,2-a][1,5]benzodiazepin-6(7H)-one] | – | – | – | – | Emax (5HT2B receptors; [6]): 60% |
| 0.009 | 0.2 | – | FCCN1CCN2c3cccc(F)c3OCC[C@H]2C1 [Example 245, (4aS)-8-fluoro-3-(2-fluoroethyl)-2,3,4,4a,5,6-hexahydro-1H-pyrazino[2,1-d][1,5]benzoxazepine] | – | – | – | 20 | Emax (5HT2C receptors; [2]): 95% |
| 0.07 | 1 | > 120 | CC(=O)c1ccccc1-c1ccc2c(c1)N1CCNC[C@@H]1CCO2 [Example 197, 1-{2-[(4aS)-2,3,4,4a,5,6-hexahydro-1H-pyrazino[2,1-d][1,5]benzoxazepin-10-yl]phenyl}ethanone] | – | – | – | – | Emax (5HT2B receptors; [6]): 15% |
| – | – | – | COc1ccc2c(c1)OCC[C@H]1CNCCN21 [Example 134, (4aS)-9-methoxy-2,3,4,4a,5,6-hexahydro-1H-pyrazino[2,1-d][1,5]benzoxazepine] | – | – | – | – | Emax (%), 5-HT2c Agonist Activity (5HT2C receptors; CHO-K1 cells, percentage relative to the effect of serotonin): 100%; EC50 (5HT2C receptors; read-out: EC50 (μM), 5-HT2c Agonist Activity, CHO-K1 cells over-expressing 5HT2C, calcium flux): 0.05 µM; EC50 (5HT2B receptors; read-out: EC50 (μM), 5-HT2B Agonist Activity, CHO-K1 cells over-expressing 5HT2B, calcium flux): > 10 µM |
| 0.0001 | > 10 | 75 | c1csc(-c2cccc3c2OCC[C@H]2CNCCN32)c1 [Example 249, (4aS)-8-(2-thienyl)-2,3,4,4a,5,6-hexahydro-1H-pyrazino[2,1-d][1,5]benzoxazepine] | – | – | – | – | – |
| – | – | – | Fc1cccc2c1N1CCNC[C@@H]1CCO2 [Example 272, (4aS)-11-fluoro-2,3,4,4a,5,6-hexahydro-1H-pyrazino[2,1-d][1,5]benzoxazepine] | 0.005 | 85 | 0.05 | 30 | – |
| – | – | – | Fc1cccc2c1OCC[C@@H]1CNCCN21 [Example 270, (4aR)-8-fluoro-2,3,4,4a,5,6-hexahydro-1H-pyrazino[2,1-d][1,5]benzoxazepine] | 0.0009 | 90 | 0.04 | 80 | – |
| 0.05 | 0.4 | > 120 | O=C1CC2CNCCN2c2cc(COc3cccc(F)c3)ccc2N1 (centres unmarked) [Example 114, 10-[(3-fluorophenoxy)methyl]-1,2,3,4,4a,5-hexahydropyrazino[1,2-a][1,5]benzodiazepin-6(7H)-one] | – | – | – | – | Emax (5HT2B receptors; [6]): 30% |
| 0.1 | > 10 | 50 | CN1CCN2c3cc(-c4cccc(S(C)(=O)=O)c4)ccc3OCC[C@H]2C1 [Example 221, (4aS)-3-methyl-10-[3-(methylsulfonyl)phenyl]-2,3,4,4a,5,6-hexahydro-1H-pyrazino[2,1-d][1,5]benzoxazepine] | – | – | – | – | – |
| – | – | – | Clc1ccc2c(c1)N1CCNC[C@H]1CCO2 [Example 261, (4aR)-10-chloro-2,3,4,4a,5,6-hexahydro-1H-pyrazino[2,1-d][1,5]benzoxazepine] | 0.0004 | 90 | 0.03 | 70 | – |
| – | – | – | CN1CCC2CNCCN2c2ccc(Cl)cc21 (centres unmarked) [Example 81, 9-chloro-7-methyl-1,2,3,4,4a,5,6,7-octahydropyrazino[1,2-a][1,5]benzodiazepine] | 0.05 | > 120 | 1 | 20 | – |
| 0.09 | 0.6 | – | FCCN1CCN2c3ccccc3OCC[C@@H]2C1 [Example 269, (4aR)-3-(2-fluoroethyl)-2,3,4,4a,5,6-hexahydro-1H-pyrazino[2,1-d][1,5]benzoxazepine] | – | – | – | 50 | Emax (5HT2C receptors; [2]): 90% |
| 0.01 | 1 | 120 | C[C@@H](Oc1ccc2c(c1)N1CCNCC1CC(=O)N2)c1ccccc1F (stereo partly drawn) [Example 161, 10-[(1R)-1-(2-fluorophenyl)ethoxy]-1,2,3,4,4a,5-hexahydropyrazino[1,2-a][1,5]benzodiazepin-6(7H)-one] | – | – | – | – | Emax (5HT2B receptors; [6]): 20% |
| – | – | – | Clc1ccc2c(c1)N1CCNC[C@@H]1CCO2 [Example 140, (4aS)-10-chloro-2,3,4,4a,5,6-hexahydro-1H-pyrazino[2,1-d][1,5]-benzoxazepine] | 0.0005 | > 120 | 0.03 | 60 | – |
| – | – | – | Cc1ccc2c(c1)N1CCNC[C@H]1CCO2 [Example 257, (4aR)-10-methyl-2,3,4,4a,5,6-hexahydro-1H-pyrazino[2,1-d][1,5]benzoxazepine] | 0.001 | 90 | 0.02 | 60 | – |
| – | – | – | Brc1cccc2c1OCC[C@H]1CNCCN21 [Example 236, (4aS)-8-bromo-2,3,4,4a,5,6-hexahydro-1H-pyrazino[2,1-d][1,5]benzoxazepine] | 0.002 | 100 | 0.01 | 10 | – |
| 1 | > 10 | 80 | O=C1CC2CNCCN2c2cc(-c3cc4ccccc4s3)ccc2N1 (centres unmarked) [Example 75, 10-(1-benzothiophen-2-yl)-1,2,3,4,4a,5-hexahydropyrazino[1,2-a][1,5]benzodiazepin-6(7H)-one] | – | – | – | – | – |
| – | – | – | Cc1ccc2c(c1)N1CCNC[C@@H]1CCO2 [Example 137, (4aS)-10-methyl-2,3,4,4a,5,6-hexahydro-1H-pyrazino[2,1-d][1,5]benzoxazepine] | 0.002 | > 120 | 0.05 | 60 | – |
| 0.04 | > 10 | 105 | CS(=O)(=O)c1cccc(-c2cccc3c2OCC[C@H]2CNCCN32)c1 [Example 239, (4aS)-8-[3-(methylsulfonyl)phenyl]-2,3,4,4a,5,6-hexahydro-1H-pyrazino[2,1-d][1,5]benzoxazepine] | – | – | – | – | – |
| 0.025 | > 10 | > 120 | O=C1CC2CNCCN2c2cc(OCCc3ccccc3)ccc2N1 (centres unmarked) [Example 158, 10-(2-phenylethoxy)-1,2,3,4,4a,5-hexahydropyrazino[1,2-a][1,5]benzodiazepin-6(7H)-one] | – | – | – | – | – |

| Structure (SMILES) | EC50 (5HT2C receptors; [3]) [µM] | EC50 (5HT2B receptors; [4]) [µM] | Emax (5HT2C receptors; [5]) [%] | EC50 (5HT2C receptors) [µM] | Emax (5HT2C receptors; [1]) [%] | EC50 (5HT2B receptors) [µM] | Emax (5HT2B receptors; [7]) [%] | also measured |
| --- | --- | --- | --- | --- | --- | --- | --- | --- |
| O=C1CC2CNCCN2c2ncccc2N1 (centres unmarked) [Example 150, 7,7a,8,9,10,11-hexahydropyrazino[1,2-d]pyrido[3,2-b][1,4]diazepin-6(5H)-one] | 0.2 | > 10 | – | – | > 120 | – | – | – |
| Nc1ccc2c(c1)OCC[C@H]1CNCCN21 [Example 135, (4aS)-2,3,4,4a,5,6-hexahydro-1H-pyrazino[2,1-d][1,5]benzoxazepin-9-amine] | 1 | > 10 | – | – | 80 | – | – | – |
| CC(C)N1CCN2c3ccccc3OCC[C@H]2C1 [Example 264, (4aS)-3-isopropyl-2,3,4,4a,5,6-hexahydro-1H-pyrazino[2,1-d][1,5]benzoxazepine] | 0.9 | > 10 | – | – | 50 | – | – | – |
